Measured values as given in PubChem BioAssay (NCI).
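1) Cells in 96-well plates. 2) Compound, 48 h, 5 concentrations. 3) Linear interpolation between surrounding doses. 4) Unreached endpoint = highest concentration. The concentration for 50% growth inhibition is given as GI50. TGI denotes the concentration required for complete inhibition of growth.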

Key:
Assay in all cases: NCI anticancer screen, dose series, 48 h
DLD-1 colon = tested on: DLD-1 colon
HCT-15 colon = tested on: HCT-15 colon
HOP-92 NSCLC = tested on: HOP-92 NSCLC
SF-268 CNS = tested on: SF-268 CNS
M14 melanoma = tested on: M14 melanoma
OVCAR-4 ovarian = tested on: OVCAR-4 ovarian
EKVX NSCLC = tested on: EKVX NSCLC
K-562 leukemia = tested on: K-562 leukemia
KM20L2 colon = tested on: KM20L2 colon
SK-OV-3 ovarian = tested on: SK-OV-3 ovarian
SF-539 CNS = tested on: SF-539 CNS
SNB-75 CNS = tested on: SNB-75 CNS
SN12C renal = tested on: SN12C renal
HOP-62 NSCLC = tested on: HOP-62 NSCLC
A549 NSCLC = tested on: A549 NSCLC
UACC-62 melanoma = tested on: UACC-62 melanoma
OVCAR-5 ovarian = tested on: OVCAR-5 ovarian
HOP-18 NSCLC = tested on: HOP-18 NSCLC
SNB-19 CNS = tested on: SNB-19 CNS
MOLT-4 leukemia = tested on: MOLT-4 leukemia
TK-10 renal = tested on: TK-10 renal
CAKI-1 renal = tested on: CAKI-1 renal
KM12 colon = tested on: KM12 colon
SK-MEL-28 melanoma = tested on: SK-MEL-28 melanoma
OVCAR-3 ovarian = tested on: OVCAR-3 ovarian
LXFL 529 NSCLC = tested on: LXFL 529 NSCLC
HCT-116 colon = tested on: HCT-116 colon
NCI-H460 lung = tested on: NCI-H460 lung
UACC-257 melanoma = tested on: UACC-257 melanoma
COLO 205 colon = tested on: COLO 205 colon
786-0 renal = tested on: 786-0 renal
IGROV1 ovarian = tested on: IGROV1 ovarian
SK-MEL-5 melanoma = tested on: SK-MEL-5 melanoma
HCC-2998 colon = tested on: HCC-2998 colon
SF-295 CNS = tested on: SF-295 CNS
SW-620 colon = tested on: SW-620 colon
UO-31 renal = tested on: UO-31 renal
ACHN renal = tested on: ACHN renal
HL-60(TB) leukemia = tested on: HL-60(TB) leukemia
OVCAR-8 ovarian = tested on: OVCAR-8 ovarian
LOX IMVI melanoma = tested on: LOX IMVI melanoma
NCI-H23 lung = tested on: NCI-H23 lung
MALME-3M melanoma = tested on: MALME-3M melanoma
HT29 colon = tested on: HT29 colon
SK-MEL-2 melanoma = tested on: SK-MEL-2 melanoma
U251 CNS = tested on: U251 CNS
CCRF-CEM leukemia = tested on: CCRF-CEM leukemia
NCI-H522 lung = tested on: NCI-H522 lung
NCI-H226 lung = tested on: NCI-H226 lung
A498 renal = tested on: A498 renal
RPMI-8226 leukemia = tested on: RPMI-8226 leukemia
M19-MEL melanoma = tested on: M19-MEL melanoma
XF 498 CNS = tested on: XF 498 CNS
DMS 114 small cell lung = tested on: DMS 114 small cell lung
DMS 273 small cell lung = tested on: DMS 273 small cell lung
RXF 393 renal = tested on: RXF 393 renal
SR leukemia = tested on: SR leukemia

CC(=O)[CH-]C(=O)c1ccccc1.CC(=O)[CH-]C(=O)c1ccccc1.CC(C)CCCC(C)[C@H]1CCC2[C@@H]3CC=C4C[C@@H]([O-])CC[C@]4(C)C3CC[C@@]21C.CC[O-].[Ti+4] (some centres not stated)
GI50 (DLD-1 colon): 93.7 µM
TGI (DLD-1 colon): > 100 µM
GI50 (HCT-15 colon): 53.8 µM
TGI (HCT-15 colon): > 100 µM
GI50 (HOP-92 NSCLC): 33.8 µM
TGI (HOP-92 NSCLC): 94 µM
GI50 (SF-268 CNS): 50.2 µM
TGI (SF-268 CNS): > 100 µM
GI50 (M14 melanoma): 48.3 µM
TGI (M14 melanoma): > 100 µM
GI50 (OVCAR-4 ovarian): 91.6 µM
TGI (OVCAR-4 ovarian): > 100 µM
GI50 (EKVX NSCLC): 66.8 µM
TGI (EKVX NSCLC): > 100 µM
GI50 (K-562 leukemia): 33.1 µM
TGI (K-562 leukemia): > 100 µM
GI50 (KM20L2 colon): 67.8 µM
TGI (KM20L2 colon): > 100 µM
GI50 (SK-OV-3 ovarian): > 100 µM
TGI (SK-OV-3 ovarian): > 100 µM
GI50 (SF-539 CNS): 34.1 µM
TGI (SF-539 CNS): > 100 µM
GI50 (SNB-75 CNS): 28.5 µM
TGI (SNB-75 CNS): > 100 µM
GI50 (SN12C renal): 94.5 µM
TGI (SN12C renal): > 100 µM
GI50 (HOP-62 NSCLC): 43.2 µM
TGI (HOP-62 NSCLC): > 100 µM
GI50 (A549 NSCLC): > 100 µM
TGI (A549 NSCLC): > 100 µM
GI50 (UACC-62 melanoma): 82.3 µM
TGI (UACC-62 melanoma): > 100 µM
GI50 (OVCAR-5 ovarian): > 100 µM
TGI (OVCAR-5 ovarian): > 100 µM
GI50 (HOP-18 NSCLC): 76 µM
TGI (HOP-18 NSCLC): > 100 µM
GI50 (SNB-19 CNS): 32.6 µM
TGI (SNB-19 CNS): > 100 µM
GI50 (MOLT-4 leukemia): 16.4 µM
TGI (MOLT-4 leukemia): 63.1 µM
GI50 (TK-10 renal): 45.6 µM
TGI (TK-10 renal): > 100 µM
GI50 (CAKI-1 renal): > 100 µM
TGI (CAKI-1 renal): > 100 µM
GI50 (KM12 colon): 39.6 µM
TGI (KM12 colon): > 100 µM
GI50 (SK-MEL-28 melanoma): 30.3 µM
TGI (SK-MEL-28 melanoma): > 100 µM
GI50 (OVCAR-3 ovarian): 49.7 µM
TGI (OVCAR-3 ovarian): > 100 µM
GI50 (LXFL 529 NSCLC): 33.1 µM
TGI (LXFL 529 NSCLC): > 100 µM
GI50 (HCT-116 colon): 45.7 µM
TGI (HCT-116 colon): > 100 µM
GI50 (NCI-H460 lung): 44.8 µM
TGI (NCI-H460 lung): > 100 µM
GI50 (UACC-257 melanoma): 60.3 µM
TGI (UACC-257 melanoma): > 100 µM
GI50 (COLO 205 colon): 48.5 µM
TGI (COLO 205 colon): > 100 µM
GI50 (786-0 renal): 35.2 µM
TGI (786-0 renal): > 100 µM
GI50 (IGROV1 ovarian): > 100 µM
TGI (IGROV1 ovarian): > 100 µM
GI50 (SK-MEL-5 melanoma): 35.2 µM
TGI (SK-MEL-5 melanoma): > 100 µM
GI50 (HCC-2998 colon): 62.6 µM
TGI (HCC-2998 colon): > 100 µM
GI50 (SF-295 CNS): 40.9 µM
TGI (SF-295 CNS): > 100 µM
GI50 (SW-620 colon): 46.6 µM
TGI (SW-620 colon): > 100 µM
GI50 (UO-31 renal): 29.4 µM
TGI (UO-31 renal): > 100 µM
GI50 (ACHN renal): 61 µM
TGI (ACHN renal): > 100 µM
GI50 (HL-60(TB) leukemia): 42.3 µM
TGI (HL-60(TB) leukemia): > 100 µM
GI50 (OVCAR-8 ovarian): 46.3 µM
TGI (OVCAR-8 ovarian): > 100 µM
GI50 (LOX IMVI melanoma): 81.1 µM
TGI (LOX IMVI melanoma): > 100 µM
GI50 (NCI-H23 lung): 26.9 µM
TGI (NCI-H23 lung): 84.2 µM
GI50 (MALME-3M melanoma): 29.4 µM
TGI (MALME-3M melanoma): 75.6 µM
GI50 (HT29 colon): 64 µM
TGI (HT29 colon): > 100 µM
GI50 (SK-MEL-2 melanoma): 22.4 µM
TGI (SK-MEL-2 melanoma): 80.1 µM
GI50 (U251 CNS): 48.7 µM
TGI (U251 CNS): > 100 µM
GI50 (CCRF-CEM leukemia): 35.5 µM
TGI (CCRF-CEM leukemia): > 100 µM
GI50 (NCI-H522 lung): 26.3 µM
TGI (NCI-H522 lung): 71.2 µM
GI50 (NCI-H226 lung): > 100 µM
TGI (NCI-H226 lung): > 100 µM
GI50 (A498 renal): 53.1 µM
TGI (A498 renal): > 100 µM
GI50 (RPMI-8226 leukemia): 18.5 µM
TGI (RPMI-8226 leukemia): 52.2 µM

CCOC(=O)C12CCC(=O)C=C1[C@@H](C)C(=O)CC2 (some centres not stated)
TGI (DLD-1 colon): > 100 µM
TGI (HCT-15 colon): > 100 µM
TGI (M19-MEL melanoma): > 100 µM
TGI (HOP-92 NSCLC): > 100 µM
TGI (SF-268 CNS): > 100 µM
TGI (M14 melanoma): > 100 µM
TGI (EKVX NSCLC): > 100 µM
TGI (XF 498 CNS): > 100 µM
TGI (KM20L2 colon): > 100 µM
TGI (SK-OV-3 ovarian): > 100 µM
TGI (SNB-75 CNS): > 100 µM
TGI (SN12C renal): > 100 µM
TGI (HOP-62 NSCLC): > 100 µM
TGI (UACC-62 melanoma): > 100 µM
TGI (OVCAR-5 ovarian): > 100 µM
TGI (DMS 114 small cell lung): > 100 µM
TGI (DMS 273 small cell lung): > 100 µM
TGI (TK-10 renal): > 100 µM
TGI (KM12 colon): > 100 µM
TGI (SK-MEL-28 melanoma): > 100 µM
TGI (OVCAR-3 ovarian): > 100 µM
TGI (LXFL 529 NSCLC): > 100 µM
TGI (HCT-116 colon): > 100 µM
TGI (NCI-H460 lung): > 100 µM
TGI (UACC-257 melanoma): > 100 µM
TGI (RXF 393 renal): > 100 µM
TGI (COLO 205 colon): > 100 µM
TGI (IGROV1 ovarian): > 100 µM
TGI (SK-MEL-5 melanoma): > 100 µM
TGI (SR leukemia): > 100 µM
TGI (HCC-2998 colon): > 100 µM
TGI (SF-295 CNS): > 100 µM
TGI (SW-620 colon): > 100 µM
TGI (UO-31 renal): > 100 µM
TGI (ACHN renal): > 100 µM
TGI (HL-60(TB) leukemia): > 100 µM
TGI (OVCAR-8 ovarian): > 100 µM
TGI (LOX IMVI melanoma): > 100 µM
TGI (NCI-H23 lung): > 100 µM
TGI (MALME-3M melanoma): > 100 µM
TGI (HT29 colon): > 100 µM
TGI (SK-MEL-2 melanoma): > 100 µM
TGI (U251 CNS): > 100 µM
TGI (NCI-H226 lung): > 100 µM
TGI (RPMI-8226 leukemia): > 100 µM

CSc1nc(Cl)c(Br)c(Sc2nc(N)nc3nc[nH]c23)n1
TGI (DLD-1 colon): 24.4 µM
TGI (HCT-15 colon): 21.2 µM
TGI (M19-MEL melanoma): 23.4 µM
TGI (HOP-92 NSCLC): 19.2 µM
TGI (SF-268 CNS): 14.9 µM
TGI (M14 melanoma): 15.3 µM
TGI (OVCAR-4 ovarian): 23.3 µM
TGI (K-562 leukemia): 13.1 µM
TGI (XF 498 CNS): 30.1 µM
TGI (KM20L2 colon): 18.8 µM
TGI (SF-539 CNS): 11.2 µM
TGI (SNB-75 CNS): 9.74 µM
TGI (HOP-62 NSCLC): 8.69 µM
TGI (A549 NSCLC): 48.7 µM
TGI (UACC-62 melanoma): 14.2 µM
TGI (OVCAR-5 ovarian): 24.1 µM
TGI (DMS 114 small cell lung): 18.9 µM
TGI (SNB-19 CNS): 30.2 µM
TGI (DMS 273 small cell lung): 15.6 µM
TGI (MOLT-4 leukemia): 18.9 µM
TGI (TK-10 renal): 20.9 µM
TGI (CAKI-1 renal): 10.2 µM
TGI (KM12 colon): 19 µM
TGI (SK-MEL-28 melanoma): 24 µM
TGI (OVCAR-3 ovarian): 29 µM
TGI (LXFL 529 NSCLC): 18.7 µM
TGI (HCT-116 colon): 12.4 µM
TGI (NCI-H460 lung): 20.1 µM
TGI (UACC-257 melanoma): 30 µM
TGI (COLO 205 colon): 33.8 µM
TGI (786-0 renal): 15.2 µM
TGI (IGROV1 ovarian): 28.2 µM
TGI (SK-MEL-5 melanoma): 26.4 µM
TGI (SR leukemia): 14.1 µM
TGI (HCC-2998 colon): 15.2 µM
TGI (SF-295 CNS): 17.7 µM
TGI (SW-620 colon): 25.3 µM
TGI (UO-31 renal): 17 µM
TGI (ACHN renal): 30.3 µM
TGI (HL-60(TB) leukemia): 13.3 µM
TGI (OVCAR-8 ovarian): 41.9 µM
TGI (NCI-H23 lung): 24 µM
TGI (MALME-3M melanoma): 26.4 µM
TGI (HT29 colon): 36.8 µM
TGI (SK-MEL-2 melanoma): 16.9 µM
TGI (U251 CNS): 16.4 µM
TGI (CCRF-CEM leukemia): 9.38 µM
TGI (NCI-H522 lung): 3.45 µM
TGI (NCI-H226 lung): 22.3 µM
TGI (RPMI-8226 leukemia): 16.4 µM
